Measured values: PubChem BioAssay AID588725 (The Scripps Research Institute Molecular Screening Center, 2011)
The source made the active and inactive calls.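 The calls were made as follows: active = versus DMSO control, mean enzyme activity at or below 80% or at or above 120%; inactive = between 80% and 120% mean enzyme activity.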

Tests used:
Assay in all cases: kinase activity changes across 48 kinases – biochemical, 33P-ATP radiometric, Reaction Biology, powder sample, selectivity assay for KLF5 inhibitor project, late-stage follow-up (AID 588725)
[1] = system: MEKK3; settings: 48-kinase panel, 33P-ATP radiometric activity, at 10 µM
[2] = biological target: RAC-beta serine/threonine-protein kinase (Homo sapiens) (UniProt P31751); settings: 48-kinase panel, 33P-ATP radiometric activity, AKT2, at 10 µM
[3] = biological target: Glycogen synthase kinase-3 beta (Homo sapiens) (UniProt P49841); settings: 48-kinase panel, 33P-ATP radiometric activity, GSK3b, at 10 µM
[4] = system: MKK6; settings: 48-kinase panel, 33P-ATP radiometric activity, at 10 µM
[5] = biological target: Protein kinase C zeta type (Homo sapiens) (UniProt Q05513); settings: 48-kinase panel, 33P-ATP radiometric activity, PKCzeta, at 10 µM
Chain of Protein kinase C zeta type (Homo sapiens) (Q05513 whole entry, looked up): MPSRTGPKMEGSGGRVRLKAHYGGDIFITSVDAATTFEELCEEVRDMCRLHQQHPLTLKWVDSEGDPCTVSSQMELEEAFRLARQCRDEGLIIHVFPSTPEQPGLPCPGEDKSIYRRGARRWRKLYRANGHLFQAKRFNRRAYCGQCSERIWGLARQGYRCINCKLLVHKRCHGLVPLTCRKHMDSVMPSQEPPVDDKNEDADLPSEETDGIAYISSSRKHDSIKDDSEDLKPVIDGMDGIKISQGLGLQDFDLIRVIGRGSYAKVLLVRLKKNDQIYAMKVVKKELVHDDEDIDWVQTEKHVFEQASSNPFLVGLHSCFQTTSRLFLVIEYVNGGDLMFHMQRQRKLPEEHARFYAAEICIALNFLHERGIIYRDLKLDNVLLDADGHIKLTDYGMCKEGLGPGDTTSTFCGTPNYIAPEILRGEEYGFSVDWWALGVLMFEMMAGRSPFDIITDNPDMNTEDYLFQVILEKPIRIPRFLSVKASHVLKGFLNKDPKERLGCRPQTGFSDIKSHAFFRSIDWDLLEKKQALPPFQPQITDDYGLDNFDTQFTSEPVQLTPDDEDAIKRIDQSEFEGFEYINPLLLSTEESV

[6] = system: JAK1; settings: 48-kinase panel, 33P-ATP radiometric activity, at 10 µM
[7] = biological target: RAC-gamma serine/threonine-protein kinase (Homo sapiens) (UniProt Q9Y243); settings: 48-kinase panel, 33P-ATP radiometric activity, AKT3, at 10 µM
[8] = biological target: Protein kinase C delta type (Homo sapiens) (UniProt Q05655); settings: 48-kinase panel, 33P-ATP radiometric activity, PKCd, at 10 µM
[9] = biological target: Serine/threonine-protein kinase D1 (Homo sapiens) (UniProt Q15139); settings: 48-kinase panel, 33P-ATP radiometric activity, PKCmu, at 10 µM
[10] = system: MLK3; settings: 48-kinase panel, 33P-ATP radiometric activity, at 10 µM
[11] = biological target: Receptor tyrosine-protein kinase erbB-4 (Homo sapiens) (UniProt Q15303); settings: 48-kinase panel, 33P-ATP radiometric activity, ERBB4, at 10 µM
[12] = biological target: RAC-alpha serine/threonine-protein kinase (Homo sapiens) (UniProt P31749); settings: 48-kinase panel, 33P-ATP radiometric activity, AKT1, at 10 µM
[13] = system: p70S6Kb; settings: 48-kinase panel, 33P-ATP radiometric activity, at 10 µM
[14] = biological target: Mitogen-activated protein kinase 9 (Homo sapiens) (UniProt P45984); settings: 48-kinase panel, 33P-ATP radiometric activity, JNK2, at 10 µM
[15] = biological target: Mitogen-activated protein kinase 1 (Homo sapiens) (UniProt P28482); settings: 48-kinase panel, 33P-ATP radiometric activity, ERK2, at 10 µM
Chain of Mitogen-activated protein kinase 1 (Homo sapiens) (P28482 whole entry, looked up): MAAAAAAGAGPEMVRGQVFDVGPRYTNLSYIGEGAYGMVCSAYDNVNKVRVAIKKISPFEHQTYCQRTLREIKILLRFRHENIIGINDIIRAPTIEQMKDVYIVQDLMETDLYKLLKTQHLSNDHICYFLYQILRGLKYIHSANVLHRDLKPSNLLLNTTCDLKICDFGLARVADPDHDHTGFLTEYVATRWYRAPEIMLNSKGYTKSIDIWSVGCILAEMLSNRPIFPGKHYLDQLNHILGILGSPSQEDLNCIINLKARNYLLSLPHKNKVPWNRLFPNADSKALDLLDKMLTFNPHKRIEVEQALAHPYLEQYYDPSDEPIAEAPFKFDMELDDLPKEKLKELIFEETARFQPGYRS

[16] = system: MEK2; settings: 48-kinase panel, 33P-ATP radiometric activity, at 10 µM
[17] = system: MEKK2; settings: 48-kinase panel, 33P-ATP radiometric activity, at 10 µM
[18] = system: Aurora A; settings: 48-kinase panel, 33P-ATP radiometric activity, at 10 µM
[19] = biological target: Mitogen-activated protein kinase 12 (Homo sapiens) (UniProt P53778); settings: 48-kinase panel, 33P-ATP radiometric activity, P38g, at 10 µM
[20] = biological target: Protein kinase C gamma type (Homo sapiens) (UniProt P05129); settings: 48-kinase panel, 33P-ATP radiometric activity, PKCg, at 10 µM
[21] = biological target: Serine/threonine-protein kinase D3 (Homo sapiens) (UniProt O94806); settings: 48-kinase panel, 33P-ATP radiometric activity, PKCnu, at 10 µM
[22] = biological target: Cyclin-dependent kinase 2 (Homo sapiens) (UniProt P24941); settings: 48-kinase panel, 33P-ATP radiometric activity, at 10 µM
[23] = system: PKCeta; settings: 48-kinase panel, 33P-ATP radiometric activity, at 10 µM
[24] = biological target: Protein kinase C iota type (Homo sapiens) (UniProt P41743); settings: 48-kinase panel, 33P-ATP radiometric activity, PKCiota, at 10 µM
[25] = biological target: Mitogen-activated protein kinase 3 (Homo sapiens) (UniProt P27361); settings: 48-kinase panel, 33P-ATP radiometric activity, ERK1, at 10 µM
[26] = biological target: Cyclin-dependent kinase 1 (Homo sapiens) (UniProt P06493); settings: 48-kinase panel, 33P-ATP radiometric activity, at 10 µM
Chain of Cyclin-dependent kinase 1 (Homo sapiens) (P06493 whole entry, looked up): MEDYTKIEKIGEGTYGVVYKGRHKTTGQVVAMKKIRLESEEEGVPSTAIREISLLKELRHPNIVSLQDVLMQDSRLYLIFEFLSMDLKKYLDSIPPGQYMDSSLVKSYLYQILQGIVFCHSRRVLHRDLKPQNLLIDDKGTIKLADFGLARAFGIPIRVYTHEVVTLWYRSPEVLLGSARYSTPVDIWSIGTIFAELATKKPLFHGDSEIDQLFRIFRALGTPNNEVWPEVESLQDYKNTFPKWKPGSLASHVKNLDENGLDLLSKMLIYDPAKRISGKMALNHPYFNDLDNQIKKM

[27] = biological target: Dual specificity mitogen-activated protein kinase kinase 1 (Homo sapiens) (UniProt Q02750); settings: 48-kinase panel, 33P-ATP radiometric activity, MEK1, at 10 µM
[28] = system: JNK1; settings: 48-kinase panel, 33P-ATP radiometric activity, at 10 µM
[29] = system: P38d; settings: 48-kinase panel, 33P-ATP radiometric activity, at 10 µM
[30] = system: PKCb1; settings: 48-kinase panel, 33P-ATP radiometric activity, at 10 µM
[31] = biological target: Protein kinase C theta type (Homo sapiens) (UniProt Q04759); settings: 48-kinase panel, 33P-ATP radiometric activity, PKCtheta, at 10 µM
[32] = system: P38b; settings: 48-kinase panel, 33P-ATP radiometric activity, at 10 µM
[33] = biological target: Epidermal growth factor receptor (Homo sapiens) (UniProt P00533); settings: 48-kinase panel, 33P-ATP radiometric activity, EGFR, at 10 µM
[34] = biological target: Mitogen-activated protein kinase 14 (Homo sapiens) (UniProt Q16539); settings: 48-kinase panel, 33P-ATP radiometric activity, P38a, at 10 µM
Chain of Mitogen-activated protein kinase 14 (Homo sapiens) (Q16539 whole entry, looked up): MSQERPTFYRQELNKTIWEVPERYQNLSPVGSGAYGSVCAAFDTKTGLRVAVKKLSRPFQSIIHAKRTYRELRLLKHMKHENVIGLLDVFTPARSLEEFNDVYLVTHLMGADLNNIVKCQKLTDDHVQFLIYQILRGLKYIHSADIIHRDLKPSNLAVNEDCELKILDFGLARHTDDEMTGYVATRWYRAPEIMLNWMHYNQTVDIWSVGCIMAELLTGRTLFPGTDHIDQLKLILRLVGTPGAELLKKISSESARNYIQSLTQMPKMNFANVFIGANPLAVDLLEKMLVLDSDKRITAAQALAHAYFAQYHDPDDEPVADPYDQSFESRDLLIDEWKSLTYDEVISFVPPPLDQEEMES

[35] = biological target: Glycogen synthase kinase-3 alpha (Homo sapiens) (UniProt P49840); settings: 48-kinase panel, 33P-ATP radiometric activity, GSK3a, at 10 µM
Chain of Glycogen synthase kinase-3 alpha (Homo sapiens) (P49840 whole entry, looked up): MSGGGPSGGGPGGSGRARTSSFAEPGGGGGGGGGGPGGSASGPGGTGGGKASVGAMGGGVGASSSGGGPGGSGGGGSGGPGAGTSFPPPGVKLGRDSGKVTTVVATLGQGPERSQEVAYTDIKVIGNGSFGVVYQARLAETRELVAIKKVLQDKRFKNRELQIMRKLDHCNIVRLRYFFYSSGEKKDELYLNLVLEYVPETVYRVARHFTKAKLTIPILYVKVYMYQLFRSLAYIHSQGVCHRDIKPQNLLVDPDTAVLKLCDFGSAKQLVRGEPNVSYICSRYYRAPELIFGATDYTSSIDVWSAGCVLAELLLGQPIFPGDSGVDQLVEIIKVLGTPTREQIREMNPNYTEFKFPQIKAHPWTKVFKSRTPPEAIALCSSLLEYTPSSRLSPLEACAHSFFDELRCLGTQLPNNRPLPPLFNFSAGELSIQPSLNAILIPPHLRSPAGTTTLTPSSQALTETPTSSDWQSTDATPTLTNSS

[36] = biological target: Inhibitor of nuclear factor kappa-B kinase subunit beta (Homo sapiens) (UniProt O14920); settings: 48-kinase panel, 33P-ATP radiometric activity, IKKb, at 10 µM
Chain of Inhibitor of nuclear factor kappa-B kinase subunit beta (Homo sapiens) (O14920 whole entry, looked up): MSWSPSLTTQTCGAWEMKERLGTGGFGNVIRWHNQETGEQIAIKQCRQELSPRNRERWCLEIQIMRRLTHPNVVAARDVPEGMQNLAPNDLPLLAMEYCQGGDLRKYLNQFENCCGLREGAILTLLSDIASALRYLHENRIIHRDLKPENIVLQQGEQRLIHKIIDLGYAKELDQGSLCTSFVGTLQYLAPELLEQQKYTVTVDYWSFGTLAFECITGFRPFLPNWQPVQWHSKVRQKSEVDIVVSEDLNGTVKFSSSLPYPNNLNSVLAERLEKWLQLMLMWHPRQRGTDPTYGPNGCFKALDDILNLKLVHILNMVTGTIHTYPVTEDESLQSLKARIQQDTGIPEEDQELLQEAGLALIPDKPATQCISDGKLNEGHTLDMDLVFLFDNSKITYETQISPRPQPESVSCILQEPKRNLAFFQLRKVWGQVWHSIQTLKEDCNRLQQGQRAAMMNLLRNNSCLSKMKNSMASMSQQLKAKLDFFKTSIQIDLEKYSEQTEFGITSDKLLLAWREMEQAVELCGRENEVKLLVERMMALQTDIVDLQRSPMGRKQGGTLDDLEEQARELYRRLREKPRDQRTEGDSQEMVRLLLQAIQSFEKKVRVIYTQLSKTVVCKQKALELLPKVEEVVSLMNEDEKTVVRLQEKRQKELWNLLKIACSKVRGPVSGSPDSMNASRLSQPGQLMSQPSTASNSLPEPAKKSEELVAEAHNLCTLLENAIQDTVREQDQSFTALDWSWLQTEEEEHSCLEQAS

[37] = system: CDK5/p35; settings: 48-kinase panel, 33P-ATP radiometric activity, at 10 µM
[38] = system: PKCb2; settings: 48-kinase panel, 33P-ATP radiometric activity, at 10 µM
[39] = system: PKCepsilon; settings: 48-kinase panel, 33P-ATP radiometric activity, at 10 µM
[40] = biological target: Inhibitor of nuclear factor kappa-B kinase subunit alpha (Homo sapiens) (UniProt O15111); settings: 48-kinase panel, 33P-ATP radiometric activity, IKKa, at 10 µM
Chain of Inhibitor of nuclear factor kappa-B kinase subunit alpha (Homo sapiens) (O15111 whole entry, looked up): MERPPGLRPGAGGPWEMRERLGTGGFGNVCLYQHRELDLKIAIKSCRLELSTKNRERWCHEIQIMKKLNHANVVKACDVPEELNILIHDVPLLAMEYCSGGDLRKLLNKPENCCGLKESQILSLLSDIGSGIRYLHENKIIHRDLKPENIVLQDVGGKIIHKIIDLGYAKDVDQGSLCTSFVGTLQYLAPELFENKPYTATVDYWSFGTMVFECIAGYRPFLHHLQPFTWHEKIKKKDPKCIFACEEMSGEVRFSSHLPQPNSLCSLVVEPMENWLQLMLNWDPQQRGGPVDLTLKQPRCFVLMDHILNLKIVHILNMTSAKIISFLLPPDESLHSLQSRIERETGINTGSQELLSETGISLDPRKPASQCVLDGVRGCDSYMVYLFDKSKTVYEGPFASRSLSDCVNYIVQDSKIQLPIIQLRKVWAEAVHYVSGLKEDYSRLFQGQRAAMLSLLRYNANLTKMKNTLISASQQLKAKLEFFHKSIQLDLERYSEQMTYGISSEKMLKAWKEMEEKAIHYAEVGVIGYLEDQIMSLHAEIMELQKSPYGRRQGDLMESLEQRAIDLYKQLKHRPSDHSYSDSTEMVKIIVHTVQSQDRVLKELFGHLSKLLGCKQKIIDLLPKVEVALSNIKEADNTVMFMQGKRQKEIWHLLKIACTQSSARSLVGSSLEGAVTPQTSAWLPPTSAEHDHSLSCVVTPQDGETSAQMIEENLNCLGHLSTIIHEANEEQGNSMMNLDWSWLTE

[41] = biological target: Serine/threonine-protein kinase B-raf (Homo sapiens) (UniProt P15056); settings: 48-kinase panel, 33P-ATP radiometric activity, BRAF, at 10 µM
[42] = biological target: Ribosomal protein S6 kinase beta-1 (Homo sapiens) (UniProt P23443); settings: 48-kinase panel, 33P-ATP radiometric activity, p70S6K, at 10 µM
Chain of Ribosomal protein S6 kinase beta-1 (Homo sapiens) (P23443 whole entry, looked up): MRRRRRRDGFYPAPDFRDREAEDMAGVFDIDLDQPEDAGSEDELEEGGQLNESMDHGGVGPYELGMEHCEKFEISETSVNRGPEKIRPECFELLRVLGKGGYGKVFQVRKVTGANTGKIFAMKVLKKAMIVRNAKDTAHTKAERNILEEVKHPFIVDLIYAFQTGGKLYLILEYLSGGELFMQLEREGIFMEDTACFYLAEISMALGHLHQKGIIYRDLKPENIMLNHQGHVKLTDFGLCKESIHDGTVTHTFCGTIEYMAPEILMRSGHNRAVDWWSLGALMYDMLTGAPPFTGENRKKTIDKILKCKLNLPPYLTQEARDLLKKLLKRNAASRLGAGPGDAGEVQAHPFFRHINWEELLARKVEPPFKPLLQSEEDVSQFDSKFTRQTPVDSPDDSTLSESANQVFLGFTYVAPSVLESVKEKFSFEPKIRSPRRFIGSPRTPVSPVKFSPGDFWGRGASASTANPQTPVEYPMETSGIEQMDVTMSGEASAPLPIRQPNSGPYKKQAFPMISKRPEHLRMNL

[43] = system: PKCa; settings: 48-kinase panel, 33P-ATP radiometric activity, at 10 µM
[44] = biological target: Mitogen-activated protein kinase 10 (Homo sapiens) (UniProt P53779); settings: 48-kinase panel, 33P-ATP radiometric activity, JNK3, at 10 µM
[45] = system: CDK5/p25; settings: 48-kinase panel, 33P-ATP radiometric activity, at 10 µM
[46] = biological target: Receptor tyrosine-protein kinase erbB-2 (Homo sapiens) (UniProt P04626); settings: 48-kinase panel, 33P-ATP radiometric activity, ERBB2, at 10 µM

Measured: enzyme activity

CN(C(=O)CNC(=O)/C=C/c1cccc(Cl)c1)C1CCS(=O)(=O)CC1
inactive: [1] 99.6% | [2] 107% | [3] 112% | [4] 103% | [5] 102% | [6] 91.3% | [7] 98.7% | [8] 104% | [9] 106% | [10] 101% | [11] 97% | [12] 104% | [13] 100% | [14] 108% | [15] 101% | [16] 105% | [17] 102% | [18] 95.4% | [19] 105% | [20] 100% | [21] 105% | [22]; CDK2/cyclin A 95.5% | [22]; CDK2/cyclin E 113% | [23] 107% | [24] 103% | [25] 103% | [26]; CDK1/cyclin A 106% | [26]; CDK1/cyclin B 103% | [27] 108% | [28] 101% | [29] 98.3% | [30] 98.5% | [31] 98.8% | [32] 95.7% | [33] 98% | [34] 96.3% | [35] 104% | [36] 107% | [37] 106% | [38] 102% | [39] 100% | [40] 97.3% | [41] 100% | [42] 104% | [43] 99.6% | [44] 102% | [45] 108% | [46] 104%
